Data from paper PMC8295196 (Organic & biomolecular chemistry, 2021).

How the values were obtained:
[1] = molecular target: T1, Cytidine Deaminase (CDA) (Homo sapiens, UniProt P32320, K27Q); assay: CDA-mediated deamination monitored by absorbance; conditions: for k1 / k2: Michaelis-Menten differential equations; for k−1: Michaelis-Menten, values assumed to be ≤10% of k1 values; for Km: calculated from k1, k−1 and k2
[2] = molecular target: T1, Cytidine Deaminase (CDA); assay: CDA-mediated deamination monitored by emission; conditions: for k1 / k2: Michaelis-Menten differential equations; for k−1: Michaelis-Menten, values assumed to be ≤10% of k1 values; for Km: calculated from k1, k−1 and k2
[3] = molecular target: T1, Cytidine Deaminase (CDA); assay: HPLC analysis of enzymatic deamination reactions; format: biochemical; conditions: after 60 minutes
[4] = pseudo-first order fit to absorption curves
[5] = pseudo-first order fit, absorption (Abs)
[6] = pseudo-first order fit to emission curves
[7] = pseudo-first order fit, emission (Em)

T1 sequence (P32320 whole entry K27Q): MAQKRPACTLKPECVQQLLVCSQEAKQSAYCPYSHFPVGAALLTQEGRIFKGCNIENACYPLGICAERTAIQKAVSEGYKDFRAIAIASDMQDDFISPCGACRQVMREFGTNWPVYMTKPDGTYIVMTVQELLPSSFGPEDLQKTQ

Row | Compound | k1 ([1]; absorption (Abs)) | k2 ([1]; absorption (Abs)) | k−1 ([1]; absorption (Abs)) | Km ([1]; absorption (Abs)) | kapp [1, 4] | kapp [1, 5] | t1/2 [1, 5] | k1 ([2]; emission (Em)) | k2 ([2]; emission (Em)) | k−1 ([2]; emission (Em)) | Km ([2]; emission (Em)) | kapp [2, 6] | kapp [2, 7] | t1/2 [2, 7] | conversion to corresponding U analogue by CDA (HPLC) [3]
1 | Nc1nc(=O)[nH]c2c([C@@H]3O[C@H](CO)[C@@H](O)[C@H]3O)scc12 [^thC] | 1.01 ± 0.47 µM⁻¹ s⁻¹ | 34 ± 7.2 s⁻¹ | 0.101 s⁻¹ | 34 µM | 7.2 ± 0.2 s^–1 | 7.2 ± 0.2 x 10^−3 s^−1 | 92 ± 5 s | 0.95 ± 0.14 µM⁻¹ s⁻¹ | 46 ± 5.3 s⁻¹ | 0.095 s⁻¹ | 49 µM | 7.4 ± 0.1 s^–1 | 7.4 ± 0.1 x 10^−3 s^−1 | 94 ± 2 s | complete conversion
2 | Cc1sc([C@@H]2O[C@H](CO)[C@@H](O)[C@H]2O)c2[nH]c(=O)nc(N)c12 [^mthC] | 0.75 ± 0.16 µM⁻¹ s⁻¹ | 56 ± 5.9 s⁻¹ | 0.075 s⁻¹ | 75 µM | 6.1 ± 0.2 s^–1 | 6.1 ± 0.2 x 10^−3 s^−1 | 110 ± 2 s | 0.71 ± 0.18 µM⁻¹ s⁻¹ | 45 ± 2.3 s⁻¹ | 0.071 s⁻¹ | 63 µM | 5.7 ± 0.1 s^–1 | 5.7 ± 0.1 x 10^−3 s^−1 | 120 ± 8 s | complete conversion
3 | Nc1nc(=O)[nH]c2c([C@@H]3O[C@H](CO)[C@@H](O)[C@H]3O)snc12 [^tzC] | 1.04 ± 0.01 µM⁻¹ s⁻¹ | 3.2 ± 0.3 s⁻¹ | 0.104 s⁻¹ | 3.1 µM | 3.3 ± 0.1 s^–1 | 3.3 ± 0.1 x 10^−3 s^−1 | 210 ± 16 s | 1.06 ± 0.32 µM⁻¹ s⁻¹ | 4.6 ± 1.3 s⁻¹ | 0.106 s⁻¹ | 4.4 µM | 4.1 ± 0.1 s^–1 | 4.1 ± 0.1 x 10^−3 s^−1 | 170 ± 10 s | complete conversion
